For orientation: MIC means the lowest concentration found to suppress growth.

Converted amounts (≈) assume the structure as drawn.

What all share (assay type): functional
One experiment has as its system Staphylococcus aureus. As to the kind of experiment: Antimicrobial activity against Staphylococcus aureus MTCC 96 after 24 hr by serial broth dilution method. The settings on record: MTCC 96, 24 h. For orientation: Broth dilution looks for growth in wells or tubes with falling amounts of substance.
In the next experiment the test system is Aspergillus niger. The experiment can be described thus: Antimicrobial activity against Aspergillus niger MTCC 282 after 72 hr by serial broth dilution method. To be noted: MTCC 282, 72 h.
Another experiment deals with Candida albicans. The experiment can be described thus: Antimicrobial activity against Candida albicans MTCC 227 after 72 hr by serial broth dilution method. The settings on record: MTCC 227, 72 h.
For the next experiment, the system named is Escherichia coli. The experiment can be described thus: Antimicrobial activity against Escherichia coli MTCC 443 after 24 hr by serial broth dilution method. To be noted: MTCC 443, 24 h.
The next experiment relates to Aspergillus clavatus. The experiment can be described thus: Antimicrobial activity against Aspergillus clavatus MTCC 1323 after 72 hr by serial broth dilution method. The settings on record: MTCC 1323, 72 h.
The test system of another experiment is Streptococcus pyogenes. The experiment can be described thus: Antimicrobial activity against Streptococcus pyogenes MTCC 442 after 24 hr by serial broth dilution method. The settings on record: MTCC 442, 24 h.
In a further experiment the test system is Pseudomonas aeruginosa. As to the kind of experiment: Antimicrobial activity against Pseudomonas aeruginosa MTCC 1688 after 24 hr by serial broth dilution method. The settings on record: MTCC 1688, 24 h.

Consider `Cc1ccn2c(CN(C)C)c(-c3ccc(F)cc3F)nc2c1`, for which the MIC in the experiment on Staphylococcus aureus worked out at 50 µg/mL (≈ 166 µM); in the experiment on Aspergillus niger, 50 µg/mL (≈ 166 µM); against Candida albicans it was 500 µg/mL (≈ 1660 µM); against Escherichia coli it was 100 µg/mL (≈ 332 µM); against Aspergillus clavatus, 100 µg/mL (≈ 332 µM); in the experiment with Streptococcus pyogenes, 250 µg/mL (≈ 830 µM). This molecule also yielded an MIC with Pseudomonas aeruginosa of 50 µg/mL (≈ 166 µM).
As to `Cc1ccn2c(CN(C)C)c(-c3ccccc3Br)nc2c1`, the minimal inhibitory concentration (MIC) in the experiment with Staphylococcus aureus stood at 500 µg/mL (≈ 1450 µM); in the experiment with Aspergillus niger, 50 µg/mL (≈ 145 µM); against Candida albicans, 500 µg/mL (≈ 1450 µM); against Escherichia coli it was 100 µg/mL (≈ 290 µM); in the experiment on Aspergillus clavatus, 100 µg/mL (≈ 290 µM); against Streptococcus pyogenes, 250 µg/mL (≈ 726 µM). In the experiment on Pseudomonas aeruginosa, this molecule had a minimum inhibitory concentration (MIC) of 100 µg/mL (≈ 290 µM).
Consider `Cc1ccn2c(CN(C)C)c(-c3c(F)cccc3F)nc2c1`, for which the minimal inhibitory concentration (MIC) in the experiment with Staphylococcus aureus worked out at 250 µg/mL (≈ 830 µM); against Aspergillus niger, 100 µg/mL (≈ 332 µM); with Candida albicans it was 1000 µg/mL (≈ 3320 µM); in the experiment on Escherichia coli it was 25 µg/mL (≈ 83 µM); against Aspergillus clavatus it was 500 µg/mL (≈ 1660 µM); against Streptococcus pyogenes it was 100 µg/mL (≈ 332 µM). The molecule also came in with a minimal inhibitory concentration (MIC) against Pseudomonas aeruginosa of 25 µg/mL (≈ 83 µM).
Turning to `Cc1ccn2c(CN(C)C)c(-c3ccc(O)c([N+](=O)[O-])c3)nc2c1`, the minimum inhibitory concentration (MIC) in the experiment with Staphylococcus aureus amounted to 500 µg/mL (≈ 1530 µM); against Aspergillus niger, 1000 µg/mL (≈ 3060 µM); in the experiment with Candida albicans, 1000 µg/mL (≈ 3060 µM); against Escherichia coli, 500 µg/mL (≈ 1530 µM); against Aspergillus clavatus, 1000 µg/mL (≈ 3060 µM); against Streptococcus pyogenes, 1000 µg/mL (≈ 3060 µM). Also, in the experiment on Pseudomonas aeruginosa, inhibition of growth (MIC) required 250 µg/mL (≈ 766 µM).
With `Cc1ccn2c(CN(C)C)c(-c3cc([N+](=O)[O-])c(O)cc3O)nc2c1`, the MIC worked out at 500 µg/mL (≈ 1460 µM) against Staphylococcus aureus; 500 µg/mL (≈ 1460 µM) in the experiment on Aspergillus niger; 500 µg/mL (≈ 1460 µM) against Candida albicans; 500 µg/mL (≈ 1460 µM) in the experiment with Escherichia coli; 500 µg/mL (≈ 1460 µM) in the experiment on Aspergillus clavatus; 250 µg/mL (≈ 730 µM) with Streptococcus pyogenes. Further, the MIC against Pseudomonas aeruginosa is 250 µg/mL (≈ 730 µM).
Regarding `Cc1ccn2c(CN(C)C)c(-c3ccc(O)cc3O)nc2c1`, the MIC with Staphylococcus aureus was determined as 500 µg/mL (≈ 1680 µM); against Aspergillus niger it was 1000 µg/mL (≈ 3360 µM); against Candida albicans, 1000 µg/mL (≈ 3360 µM); against Escherichia coli, 500 µg/mL (≈ 1680 µM); with Aspergillus clavatus it was 1000 µg/mL (≈ 3360 µM); against Streptococcus pyogenes, 250 µg/mL (≈ 841 µM). The molecule further yielded an MIC with Pseudomonas aeruginosa of 500 µg/mL (≈ 1680 µM).
With `COC1=CC(=O)C[C@@H](C)[C@]12Oc1c(Cl)c(OC)cc(OC)c1C2=O` [GRISEOFULVIN], the minimal inhibitory concentration (MIC) in the experiment with Aspergillus niger is 100 µg/mL (≈ 283 µM); in the experiment with Candida albicans, 500 µg/mL (≈ 1420 µM); against Aspergillus clavatus, 100 µg/mL (≈ 283 µM).
Regarding `Cc1ccn2c(CN(C)C)c(-c3ccc([N+](=O)[O-])cc3Br)nc2c1`, the MIC in the experiment on Staphylococcus aureus was found to be 500 µg/mL (≈ 1280 µM); in the experiment on Aspergillus niger it was 500 µg/mL (≈ 1280 µM); with Candida albicans, 1000 µg/mL (≈ 2570 µM); against Escherichia coli, 100 µg/mL (≈ 257 µM); against Aspergillus clavatus it was 500 µg/mL (≈ 1280 µM); against Streptococcus pyogenes, 100 µg/mL (≈ 257 µM). This molecule showed a minimal inhibitory concentration (MIC) in the experiment with Pseudomonas aeruginosa of 100 µg/mL (≈ 257 µM).
As for `Cc1ccn2c(CN(C)C)c(-c3ccccc3O)nc2c1`, the MIC against Staphylococcus aureus was 500 µg/mL (≈ 1780 µM); against Aspergillus niger, 1000 µg/mL (≈ 3550 µM); against Candida albicans, 1000 µg/mL (≈ 3550 µM); in the experiment with Escherichia coli, 500 µg/mL (≈ 1780 µM); in the experiment on Aspergillus clavatus, 1000 µg/mL (≈ 3550 µM); against Streptococcus pyogenes, 500 µg/mL (≈ 1780 µM). In the experiment on Pseudomonas aeruginosa, this molecule showed an MIC of 500 µg/mL (≈ 1780 µM).
Turning to `CC1(C)S[C@@H]2[C@H](NC(=O)[C@H](N)c3ccccc3)C(=O)N2[C@H]1C(=O)O` [AMPICILLIN], the minimum inhibitory concentration (MIC) in the experiment on Staphylococcus aureus turned out to be 250 µg/mL (≈ 715 µM); with Escherichia coli it was 100 µg/mL (≈ 286 µM); against Streptococcus pyogenes, 100 µg/mL (≈ 286 µM); in the experiment with Pseudomonas aeruginosa it was 100 µg/mL (≈ 286 µM).
In the case of `Cc1ccn2c(CN(C)C)c(-c3ccc(F)c(Cl)c3)nc2c1`, the MIC in the experiment with Staphylococcus aureus came out at 50 µg/mL (≈ 157 µM); in the experiment on Aspergillus niger, 1000 µg/mL (≈ 3150 µM); against Candida albicans, 250 µg/mL (≈ 787 µM); against Escherichia coli it was 50 µg/mL (≈ 157 µM); against Aspergillus clavatus, 1000 µg/mL (≈ 3150 µM); against Streptococcus pyogenes, 50 µg/mL (≈ 157 µM). Moreover, in the experiment with Pseudomonas aeruginosa, the MIC is 100 µg/mL (≈ 315 µM).
As for `Cc1ccn2c(CN(C)C)c(-c3cccc(Br)c3F)nc2c1`, the MIC against Staphylococcus aureus was 250 µg/mL (≈ 690 µM); in the experiment with Aspergillus niger, 100 µg/mL (≈ 276 µM); in the experiment with Candida albicans it was 1000 µg/mL (≈ 2760 µM); with Escherichia coli it was 500 µg/mL (≈ 1380 µM); in the experiment with Aspergillus clavatus it was 25 µg/mL (≈ 69 µM); against Streptococcus pyogenes, 25 µg/mL (≈ 69 µM). This molecule also gave an MIC in the experiment with Pseudomonas aeruginosa of 500 µg/mL (≈ 1380 µM).
Take `Cc1ccn2c(CN(C)C)c(-c3cccc(Cl)c3)nc2c1`: the MIC worked out at 100 µg/mL (≈ 334 µM) with Staphylococcus aureus; 100 µg/mL (≈ 334 µM) against Aspergillus niger; 250 µg/mL (≈ 834 µM) with Candida albicans; 100 µg/mL (≈ 334 µM) in the experiment on Escherichia coli; 100 µg/mL (≈ 334 µM) in the experiment with Aspergillus clavatus; 500 µg/mL (≈ 1670 µM) in the experiment on Streptococcus pyogenes. The minimal inhibitory concentration (MIC) in the experiment with Pseudomonas aeruginosa came to 50 µg/mL (≈ 167 µM).
As to `Cc1ccn2c(CN(C)C)c(-c3cccc(F)c3F)nc2c1`, the minimal inhibitory concentration (MIC) was found to be 500 µg/mL (≈ 1660 µM) in the experiment on Staphylococcus aureus; 250 µg/mL (≈ 830 µM) against Aspergillus niger; 125 µg/mL (≈ 415 µM) against Candida albicans; 50 µg/mL (≈ 166 µM) in the experiment with Escherichia coli; 250 µg/mL (≈ 830 µM) against Aspergillus clavatus; 500 µg/mL (≈ 1660 µM) in the experiment with Streptococcus pyogenes. In the experiment with Pseudomonas aeruginosa, the minimum inhibitory concentration (MIC) stood at 250 µg/mL (≈ 830 µM).
